In series [1] the test system is NALM6-luc tumors. In words: NALM6-luc tumor growth with daily RAD001 dosing. Type of series: in vivo, NSG mice. To be noted: daily oral dosing of RAD001 alone, 0.3, 1, 3 and 10 mg/kg; FIG. 7. How it is done:
NALM6-luc cells: The NALM6 human acute lymphoblastic leukemia (ALL) cell line was developed from the peripheral blood of a patient with relapsed ALL. The cells were then tagged with firefly luciferase. These suspension cells grow in RPMI supplemented with 10% heat inactivated fetal bovine serum.
Mice: 6 week old NSG (NOD.Cg-Prkdc^scidIl2rg^tm1Wjl/SzJ) mice were received from the Jackson Laboratory (stock number 005557).
(§1) Tumor implantation: NALM6-luc cells were grown and expanded in vitro in RPMI supplemented with 10% heat inactivated fetal bovine serum. The cells were then transferred to a 15 ml conical tube and washed twice with cold sterile PBS. NALM6-luc cells were then counted and resuspended at a concentration of 10×10^6 cells per milliliter of PBS. The cells were placed on ice and immediately (within one hour) implanted in the mice. NALM6-luc cells were injected intravenously via the tail vein in a 100 μl volume, for a total of 1×10^6 cells per mouse.
(§2) RAD001 dosing: A concentrated micro-emulsion of 50 mg equal to 1 mg RAD001 was formulated and then resuspended in D5W (dextrose 5% in water) at the time of dosing. Mice were orally dosed daily (via oral gavage) with 200 μl of the desired doses of RAD001.
PK analysis: Mice were dosed daily with RAD001 starting 7 days post tumor implantation. Dosing groups were as follows: 0.3 mg/kg, 1 mg/kg, 3 mg/kg, and 10 mg/kg. […]

Series [2] relates to huCART19 cells co-cultured with Nalm-6. In words: CART proliferation in 4 day co-culture with Nalm-6 in the presence of RAD001. Type of series: cell-based, human. How it is done:
The effect of low doses of RAD001 on CAR T cell proliferation in vitro was evaluated by co-culturing CART-expressing cells with target cells in the presence of different concentrations of RAD001.
A humanized, anti-human CD19 CAR (huCART19) lentiviral transfer vector was used to produce the genomic material packaged into VSVg pseudotyped lentiviral particles. The amino acid and nucleotide sequence of the humanized anti-human CD19 CAR (huCART19) is CAR 1, ID 104875 described in PCT publication, WO2014/153270, filed Mar. 15, 2014, and is designated SEQ ID NOs. 85 and 31 therein.
Lentiviral transfer vector DNA is mixed with the three packaging components VSVg env, gag/pol and rev in combination with lipofectamine reagent to transfect Lenti-X 293T cells. Medium is changed after 24 h and 30 h thereafter, the virus-containing media is collected, filtered and stored at −80° C. CARTs are generated by transduction of fresh or frozen naïve T cells obtained by negative magnetic selection of healthy donor blood or leukopak. T cells are activated by incubation with anti-CD3/anti-CD28 beads for 24 h, after which viral supernatant or concentrated virus (MOI=2 or 10, respectively) is added to the cultures. The modified T cells are allowed to expand for about 10 days. The percentage of cells transduced (expressing the CARs on the cell surface) and the level of CAR expression (relative fluorescence intensity, Geo Mean) are determined by flow cytometric analysis between days 7 and 9. The combination of slowing growth rate and T cell size approaching ˜350 fL determines the state for T cells to be cryopreserved for later analysis.
To evaluate the functionality of CARTs, the T cells are thawed and counted, and viability is assessed by Cellometer. The number of CAR-positive cells in each culture is normalized using non-transduced T cells (UTD). […]
For measuring the proliferation of CARTs, T cells are cultured with target cells at a ratio of 1:1. […] The number of T cells is assessed by flow cytometry using counting beads as reference.

Series [3] deals with huCAR19 CAR T cells. The experiment in a line: In vivo proliferation of humanized CD19 CAR T cells with and without RAD001 dosing. Set-up: species or system NSG mice. How it is done:
This example evaluates the ability of huCAR19 cells to proliferate in vivo with different concentrations of RAD001.
as §1
CAR T cell dosing: Mice were administered 5×10^6 CAR T cells 7 days after tumor implantation. Cells were partially thawed in a 37 degree Celsius water bath and then completely thawed by the addition of 1 ml of cold sterile PBS to the tube containing the cells. The thawed cells were transferred to a 15 ml falcon tube and adjusted to a final volume of 10 mls with PBS. The cells were washed twice at 1000 rpm for 10 minutes each time and then counted on a hemocytometer. T cells were then resuspended at a concentration of 50×10^6 CAR T cells per ml of cold PBS and kept on ice until the mice were dosed. The mice were injected intravenously via the tail vein with 100 μl of the CAR T cells for a dose of 5×10^6 CAR T cells per mouse. Eight mice per group were treated either with 100 μl of PBS alone (PBS), or humanized CD19 CAR T cells.
as §2
Based on these doses, huCAR19 CAR T cells were dosed with and without RAD001 to determine the proliferative ability of these cells. The highest dose used was 3 mg/kg based on the levels of RAD001 in the blood 24 hours after dosing. As the concentration of RAD001 was above 10 nM 24 hours after the final dose of RAD001, several lower doses of RAD001 were used in the in vivo study with CAR T cells. The CAR T cells were dosed IV one day prior to the start of the daily oral RAD001 dosing. Mice were monitored via FACS for T cell expansion.

Series [4] is described as follows: Pharmacokinetic analysis of RAD001 in blood of NSG mice with NALM6 tumors. Format: in vivo. How it is done: as §2
PK analysis: Mice were dosed daily with RAD001 starting 7 days post tumor implantation. Dosing groups were as follows: 0.3 mg/kg, 1 mg/kg, 3 mg/kg, and 10 mg/kg. Mice were bled on days 0 and 14 following the first and last dose of RAD001, at the following time points for PK analysis: 15 minutes, 30 minutes, 1 hour, 2 hours, 4 hours, 8 hours, 12 hours, and 24 hours.

Structures are written as SMILES.

On to `CO[C@H]1C[C@@H]2CC[C@@H](C)[C@@](O)(O2)C(=O)C(=O)N2CCCC[C@H]2C(=O)O[C@H]([C@H](C)C[C@@H]2CC[C@@H](OCCO)[C@H](OC)C2)CC(=O)[C@H](C)/C=C(\C)[C@@H](O)[C@@H](OC)C(=O)[C@H](C)C[C@H](C)/C=C/C=C/C=C/1C` [RAD001, (1R,9S,12S,15R,16E,18R,19R,21R,23S,24E,26E,28E,30S,32S,35R)-1,18-dihydroxy-12-{(1R)-2-[(1S,3R,4R)-4-(2-hydroxyethoxy)-3-methoxycyclohexyl]-1-methylethyl}-19,30-dimethoxy-15,17,21,23,29,35-hexamethyl-11,36-dioxa-4-aza-tricyclo[30.3.1.04,9]hexatriaconta-16,24,26,28-tetraene-2,3,10,14,20-pentaone], for which the “growth of NALM6-luc tumors” value in series [1] is listed as “did not have an impact”. The “proliferation of huCART19 compared with no RAD001” value in series [2] (0.0032 and 0.016 nM RAD001, 4 day co-culture with Nalm-6) is on record as “higher than observed without the addition of RAD001”. In series [2] (4 day co-culture with Nalm-6 at 1:1, to a lesser extent at higher concentrations, FIG. 6), the “RAD001 concentration at which huCART19 cells expanded” value is reported as “less than 0.016 nM”. In addition, the “proliferation of CAR-expressing, transduced T cells” value in series [2] (low doses of RAD001, co-culture with Nalm-6, 4 days, FIG. 6 legend) is listed as “enhanced”. In addition, in series [3] (RAD001 0.003 mg/kg daily, FIG. 9 legend), the “CAR T cell proliferation relative to normal level of huCAR19 proliferation” value is “enhancement in CAR T cell proliferation”. For the same molecule, the “proliferation of the CAR T cells in vivo” value in series [3] (lowest doses of RAD001, daily oral, huCAR19 CAR T cells IV one day before, FIGS. 9A and 9B) was “enhanced proliferation”. Moreover, the “enhanced proliferation, CD4+ CAR T cells compared with CD8+ CAR T cells” value in series [3] (lowest doses of RAD001, FIG. 9A) was “more evident and prolonged”. Besides, the “proliferation of CD8+ CAR T cells” value in series [3] (lowest doses of RAD001, FIG. 9B) is “enhanced proliferation can be seen at early time points”. Further, the concentration at 24 h in series [4] (NSG, mouse, blood, lowest dose tested (0.3 mg/kg), oral, day 0 and day 14 PK, read-out: RAD001 concentrations in the blood 24 hours after dosing) was greater than 0.01 µM. Further, the “concentration of RAD001 24 hours after the final dose” value in series [4] (blood, NSG mice with NALM6 tumors) is recorded as “above 10 nM”. In series [4] (daily oral RAD001, FIGS. 8A and 8B), the “stability in the blood of tumor bearing mice” value was “fairly stable”.

The values are drawn from patent publication US12186278B2, “Mesothelin chimeric antigen receptor (CAR) and antibody against PD-L1 inhibitor for combined use in anticancer therapy” (Novartis AG, priority 2015, dated 2025).
